Two compounds from patent US10597388B2, “Pyridazinone herbicides” (FMC CORPORATION, priority 2014, dated 2020) can be followed below.

Assay type in all cases: in vivo
Test [1] deals with crabgrass, large (large crabgrass, Digitaria sanguinalis). Briefly: Test A greenhouse herbicide test, pre- and postemergence. Particulars: 240 h; for pest or weed control at 125 g/ha: 125 g ai/ha; for pest or weed control at 500 g/ha: 500 g ai/ha; for pest or weed control at 500 g/ha / pest or weed control at 1000 g/ha: 0 to 100 scale; for pest or weed control at 1000 g/ha: 1000 g ai/ha. An outline of the steps: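 Seeds sown in loam–sand blend got a preemergence directed soil spray of compound in non-phytotoxic solvent with surfactant. Postemergence treatment was given at 2–10 cm, one- to two-leaf stage. After ~10 d in greenhouse, injury was rated visually vs untreated controls, 0 (no effect) to 100 (complete control).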

In test [2] the test system is ALOMY, blackgrass (Alopecurus myosuroides). Briefly: Test F mixtures with commercial herbicides, Post- or Pre-emergence. Conditions: Post-emergence, scale 0-100. An outline of the steps:
(§1)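 Observed control (0–100, visual, day 20) was compared with Colby-expected additive effect calculated from each component's effect at the same rate. Treatments were pre- or post-emergence sprays on seeded Sandy Loam, rate as g a.i./ha.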

For test [3], the system named is AMARE, redroot pigweed (Amaranthus retroflexus). The description is as above. An outline of the steps: as §1
In test [4] the test system is AMBEL, common ragweed (Ambrosia elatior). The test is described as above. An outline of the steps:
as §1

Test [5] deals with ECHCG, barnyardgrass (Echinochloa crus-galli). The test is described as above. An outline of the steps: as §1
The subject of test [6] is GALAP, galium (Galium aparine). The description is as above. Particulars: Post-emergence, scale 0-100. An outline of the steps:
as §1

Test [7] has as its system KCHSC, kochia (Kochia scoparia). The description is as above. An outline of the steps:
as §1

Test [8] relates to LOLMU, Italian Ryegrass (Lolium multiflorum). The description is as above. An outline of the steps:
as §1

The subject of test [9] is SETVI, giant foxtail (Setaria faberii). The test is described as above. An outline of the steps: as §1
Where [10] appears, read: post-emergence, Postemergence, 0 is no effect, 100 is complete control, read-out: Crabgrass, Large plant response rating.
Setting [11] is: pre-emergence, Preemergence, 0 no effect, 100 complete control, read-out: Plant response rating, Crabgrass, Large.
The mark [12] stands for this setting: Post-emergence, Rate 16 g a.i./ha, scale 0-100.
Setting [13] is: Post-emergence, Rate 62 g a.i./ha, scale 0-100.
Setting [14] is: Pre-emergence, Rate 16 g a.i./ha, applied alone, 20 d, scale 0 to 100.
Where [15] appears, read: Pre-emergence, Rate 62 g a.i./ha, applied alone, 20 d, scale 0 to 100.

SMILES strings stand for the structures. Read-outs that look alike come from different tables or passages of the source.

On to `Cc1nn(C)c(=O)c(-c2c(C)oc3c(C)cccc23)c1O` [Compound 9, 4-(2,7-dimethyl-3-benzofuranyl)-5-hydroxy-2,6-dimethyl-3(2H)-pyridazinone], for which the pest or weed control at 125 g/ha in test [1] (post-emergence, Postemergence, visual rating after approx. 10 d, 0 to 100 scale (0 no effect, 100 complete control), read-out: Plant response rating, Crabgrass, Large) stood at 10%; in test [1] (pre-emergence, Preemergence, 0 to 100 scale where 0 is no effect and 100 is complete control, read-out: Crabgrass, Large plant response rating), 20%. The pest or weed control at 500 g/ha in test [1] (setting [10]) amounted to 50%; in test [1] (setting [11]), 90%.

In the case of `Cc1ccc2sc(C)c(-c3c(O)c(C)nn(C)c3=O)c2c1` [Compound 1, 4-(2,5-dimethylbenzo[b]thien-3-yl)-5-hydroxy-2,6-dimethyl-3(2H)-pyridazinone], the pest or weed control at 1000 g/ha in [1] (setting [10]) and in [1] (setting [11]) was 90% throughout. For the same compound, the results for the “ALOMY Obsd.” value in test [2] (Rate 16 g a.i./ha) and in [2] (Rate 62 g a.i./ha) were 0.0 and 35.0, respectively. Besides, the “AMARE Obsd.” value in test [3] (setting [12]) is listed as 30.0; in test [3] (setting [13]) it was 100.0; in [3] (setting [14]), 20; in test [3] (setting [15]), 90. Moreover, the “AMBEL Obsd.” value came to 95.0 in [4] (setting [12]), 100.0 in test [4] (setting [13]), 65 in test [4] (setting [14]) and 90 in test [4] (setting [15]). Further, the “ECHCG Obsd.” value in [5] (setting [12]) is 0.0; in test [5] (setting [13]) it was 0.0; in [5] (setting [14]) it was 0; in test [5] (setting [15]) it was 20. In addition, the “GALAP Obsd.” value is listed as 65.0 in test [6] (Rate 16 g a.i./ha) and 100.0 in test [6] (Rate 62 g a.i./ha). The “KCHSC Obsd.” value in test [7] (setting [12]) is recorded as 60.0; in test [7] (setting [13]), 100.0; in test [7] (setting [14]), 0; in [7] (setting [15]) it was 25. The “LOLMU Obsd.” value was 65.0 in test [8] (setting [12]), 100.0 in test [8] (setting [13]), 65 in test [8] (setting [14]) and 100 in [8] (setting [15]). For the same compound, the “SETVI Obsd.” value in [9] (setting [12]) is 0.0; in test [9] (setting [13]), 40.0; in test [9] (setting [14]), 0; in test [9] (setting [15]), 60.
